Several values for one entry are separate records, joined by “and”; a condition that tells them apart may be missing. Equal values may be shown once. Read-outs that look alike come from different tables or passages of the source.
Legend:
[1] = LogD measurement (n-octanol/phosphate buffer); type: physicochemical; conditions: n-octanol / 1 M phosphate buffer pH 7.4
Description: LogD of the tracers was measured using the radioactivity remaining on the HLB SPE cartridges after their elution with ethanol during the tracer formulation procedure (see above). The cartridge was dried with nitrogen for 5 min and eluted with at least 1.5 mL n-octanol. A 500 μL portion of octanol eluate was mixed with 500 μL of 1 M phosphate buffer (pH 7.4) and vigorously vortexed for 5 min. The mixture was then centrifuged at 17,000g for 10 min and 3 × 100 μL aliquots of organic and aqueous phase were loaded into a gamma-counter for radioactivity measurement. To correct for possible presence of radioactive impurities in the tracer, aliquots of organic and aqueous phases were later analyzed by radio-TLC, and the counts obtained from the gamma-counter were corrected according to the percentage of impurities found in aqueous and organic phases. LogD was calculated with the following formula: LogD=lgCPMorg×Xorgtracer/CPMaq×Xaqtracer,
where CPMorg is the mean radioactivity of the organic aliquots, Xorgtracer is the mean percentage of radioactivity accounting for intact tracer in organic aliquots (as determined from radio-TLC), and CPMaq and Xaqtracer are the corresponding values for the aqueous phase.
For each tracer batch used for logD determination, the experiment was performed in duplicate. LogD values are means calculated from at least two independent experiments.

[2] = Tracer metabolism in plasma and brain extract (radio-TLC); type: in vivo, rats; conditions: for metabolism in plasma: living rats
Description: Throughout the scan, arterial blood samples (15–19 samples; 0.10–0.15 mL each) were withdrawn from each rat through the arterial cannula. […] From each sample, 25 μL aliquots of whole blood were withdrawn. The rest was centrifuged at 3500 g for 5 min; 25 μL supernatant (plasma) aliquots were withdrawn and deproteinated with 75 μL of ice-cold acetonitrile. From the resulting 100 μL, 2–8 μL portions (i.e., 2–8 % of volume) were taken for thin layer chromatography analysis (radio-TLC) to assess radiometabolite content.
The radioactivity of the plasma and whole blood samples was measured using a well-type gamma-counter (LKB-1282-Compugamma, LKB Wallac).
Radio-TLC was performed on silica plates. Samples of the formulated tracers (diluted) were run along with deproteinated plasma samples to confirm the identity of the parent compound in plasma. Eluent systems used and TLC Rf values recorded are presented in Additional file 1: Table S1.
Another half of the brain was homogenized in 3 mL of ice-cold acetonitrile using Heidolph IDAX600 homogenizer at maximum speed. Homogenate was centrifuged at 3500g for 5 min, and the supernatant (containing >95 % total radioactivity) was analyzed by radio-TLC in the same way as described above for the plasma.

[3] = system: D2/3R; set-up: method as in PMID 24325578; conditions: cited from earlier work; for Striatal SBR % change relative to control condition, Raclopride / Striatal SBR, Raclopride: 10 μM raclopride; for Striatal SBR % change relative to control condition, GTP / Striatal SBR, GTP: 100 μM GTP; for Striatal SBR, Control: radioligand only
[4] = system: D2/3R; experiment: In vitro autoradiography of rat brain slices; type: binding, Sprague-Dawley rats
Description: In vitro autoradiography assay was performed as previously described. Frozen brains of young (10–12 weeks of age; 300–350 g body weight) male Sprague-Dawley rats (Harlan, Netherlands) were cut at −12 °C into sagittal slices 20 μm thick using a Leica microtome, and the slices were thaw-mounted on Superfrost (70 × 22 mm, Fischer) adhesive slides. Only slices containing both striatal and cerebellar regions were used. The slides with slices mounted them were allowed to dry, then put into storage boxes with silica gel bags and stored at −80 °C.
On the day of the experiment (within 1 week from the preparation of the slices), the slides were taken out of storage and allowed to come to room temperature for 5–10 min. Then, 1–1.2 mL of incubation buffer (50 mM Tris-HCl, 5 mM KCl, 2 mM CaCl2, 2 mM MgCl2, 120 mM NaCl, pH 7.4 25 °C) was applied per slide, and the slides were pre-incubated for 15 min at room temperature. The buffer was then removed, and the slides were placed into staining jars containing radioligand solution (concentration range of 0.1–10 nM) in the incubation buffer with or without 10 μM raclopride (D2/3 antagonist) or 100 μM guanosine-5'-triphosphate sodium salt (GTP, stimulator of G-protein uncoupling from the receptors). After 35 min of incubation at 37 °C, slides were washed once with ice-cold incubation buffer (3.5 min) and dipped for 30 s into ice-cold distilled water to remove buffer salts.
After drying the slides in a stream of room-temperature air, they were exposed on phosphor storage screens for 6–10 h. The storage screens were read by Cyclone Storage Phosphor System (Packard Instruments Co.). Quantification of plate readings was done with OptiQuant software (version 3.00, Packard Instruments Co.).
(§1) Degree of D2/3R-specific binding of the tracers was characterized by BPND (as given above) or the specific binding ratio (SBR) given as target region activity/cerebellar activity - 1. Both were calculated under control conditions and in response to the raclopride challenge.

[5] = system: striatal D2/3R; experiment: Ex vivo autoradiography study in rats
Description: To further assess the specific binding of [^18F]FEt-AMC13 to the striatal D2/3R, two groups of rats were anesthetized, pre-treated with saline (n = 3) or raclopride (n = 3), and 26 ± 3 min later injected with a bolus of [^18F]FEt-AMC13 (4.2 ± 1.4 MBq, 0.14 ± 0.04 nmol/kg) into the penile vein. Rats were sacrificed by heart extirpation 35 min later. Brains were quickly extracted and separated into two halves along the sagittal symmetry plane or along the coronal plane spanning the thalamus.
One half of the brain (rostral or randomly taken left/right) was quickly frozen over liquid nitrogen and prepared for cutting on the microtome in the same manner as brains used for in vitro autoradiography. Slices 40 μm thick were cut, mounted on Superfrost glass slides, permitted to dry, and then directly applied to the phosphor storage screens.
as §1

[6] = [^18F]FBu-AMC13 0.2 nM, [^18F]FEt-AMC15 5.8 ± 1.6 nM

## Oc1ccc2c(c1)O[C@@H](CNCc1ccc(OCCCC[18F])cc1)CC2 [[^18F]FBu-AMC13, (R)-2-[(4-(4-[^18F]fluorobutoxy)benzylamino)methyl]chroman-7-ol]
[1]
  logD: 2.5 ± 0.06
[2]
  metabolism in plasma: quickly metabolized in the plasma
[3]; [6]
  Striatal SBR % change relative to control condition, Raclopride: −88%
  Striatal SBR, Raclopride: 0.10 ± 0.19
  Striatal SBR % change relative to control condition, GTP: −76%
  Striatal SBR, GTP: 0.20 ± 0.16
  Striatal SBR, Control: 0.85 ± 0.23
[3]; tracer 4.5 ± 3.6 nM
  Striatal SBR % change relative to control condition, Raclopride: −79%
  Striatal SBR, Raclopride: 0.04 ± 0.22
  Striatal SBR, Control: 0.19 ± 0.18

## Oc1ccc2c(c1)O[C@@H](CNCc1ccc(OCC[18F])cc1)CC2 [[^18F]FEt-AMC13]
[1]
  logD: 1.67 ± 0.07
[4]; 10 μM raclopride, compared to control conditions
  decrease of striatal SBR (D2/3R-specific binding) by raclopride in vitro: 81%
[4]; rat brain slices
  mean striatum-to-cerebellum uptake ratio in vitro: 4.4
[4]; with 10 μM raclopride
  Striatal SBR % change relative to control condition, Raclopride: −81%
  Striatal SBR, Raclopride: 0.63 ± 0.53
[4]; with 100 μM GTP
  Striatal SBR % change relative to control condition, GTP: −81%
  Striatal SBR, GTP: 0.66 ± 0.52
[5]; 1 mg/kg raclopride
  Ex vivo autoradiography-based SBR: 1.06 ± 0.17
[5]; 1 mg/kg raclopride, p < 0.01
  decrease of ex vivo autoradiography-based SBR: 39%
[5]; 35 min post-injection, saline pre-treated rats
  Striatum-to-cerebellum uptake ratio (ex vivo autoradiography): 2.8 and 2.81 ± 0.29
[5]; saline pre-treated
  Ex vivo autoradiography-based SBR: 1.81 ± 0.29
[2]; 35 min post-injection
  intact tracer in radioactivity of brain tissue extract: 92%
[2]
  metabolism in plasma: quickly metabolized in the plasma
[2]; rat, in vivo
  entry of radiometabolites into the brain: did not enter the brain

## Oc1ccc2c(c1)O[C@@H](CNCCN1CCN(c3ccc(OCC[18F])cc3)CC1)CC2 [[^18F]FEt-AMC15, (R) 1-(4-(2-[^18F]fluoroethoxy)phenyl)-4-(4-(7-hydroxychroman-2-yl)-3-azabutyl)-piperazine]
[1]
  logD: 1.48 ± 0.002
[2]
  metabolism in plasma: more stable
[3]; [6]
  Striatal SBR % change relative to control condition, Raclopride: −60%
  Striatal SBR, Raclopride: 0.65 ± 0.37
  Striatal SBR % change relative to control condition, GTP: −59%
  Striatal SBR, GTP: 0.67 ± 0.28
  Striatal SBR, Control: 1.64 ± 1.04

Source: article PMC4512978, “Synthesis and evaluation in rats of homologous series of [^18F]-labeled dopamine D2/3 receptor agonists based on the 2-aminomethylchroman scaffold as potential PET tracers” (EJNMMI Research, 2015)
